For this assay, the target named is T1, YTH domain of YTHDF1 (Homo sapiens, UniProt Q9BYJ9).
T1 sequence (Q9BYJ9 361-559): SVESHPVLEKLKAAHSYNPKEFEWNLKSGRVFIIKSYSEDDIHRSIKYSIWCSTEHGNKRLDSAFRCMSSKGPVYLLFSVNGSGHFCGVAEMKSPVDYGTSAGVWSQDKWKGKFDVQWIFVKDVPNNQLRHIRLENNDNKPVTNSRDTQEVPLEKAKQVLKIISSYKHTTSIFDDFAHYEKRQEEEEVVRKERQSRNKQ
The assay is described as follows: SPR competition. It counts as binding.

Experimental findings from publication doi:10.1101/2022.10.08.511406v1 (biorxiv, 2022) are described below.

Structures are written as SMILES.

By IC50 is commonly meant the concentration that inhibits the measured activity by half. The low end stands for greater potency, the high end for weaker potency.

Consider `CCCCCNC(=N)N/N=C/c1c[nH]c2ccc(OC)cc12` [tegaserod], for which the IC50 was determined as 13.8 µM.
